According to patent US9114171B2, “Racecadotril liquid compositions” (McNeil-PPC, Inc., priority 2012, dated 2015):

Tests used:
Assay type in all cases: physicochemical
[1] = Stability of Racecadotril in Buffer
Procedure: (§1) For comparative purposes, the stability of racecadotril was analyzed when solubilized in pH 4.5 Acetate buffer and pH 4.5 Citrate buffer (Table 4). Test Methods Sample Preparation: • 1. Pipet 1 mL of Racecadotril solution into a 100 mL volumetric flask (V.F.) • 2. Dilute to volume with the same buffer used in the solution preparation. • 3. Further dilute the sample solution to about 0.1 mg/mL if necessary. […] Parameters may be modified to optimize chromatography. • The assay of Racecadotril is determined by using the external standard injected. The degradation products levels are determined by % peak area relative to the Racecadotril peak. Chromatographic Conditions (European Pharmacopoeia Racecadotril Method): […]

[2] = Stability of Racecadotril in Water; conditions: room temperature and 40° C.
Procedure: as §1, with “tested at room temperature” for “analyzed when solubilized in pH 4.5 Acetate buffer”, “at 40° C.” for “pH 4.5 Citrate buffer (Table 4).”

[3] = Stability of Racecadotril in Beta-Hydroxypropyl-Cyclodextrin (Beta-HPCD), Table 5
Procedure: Formulations of racecadotril in beta-hydroxypropyl-cyclodextrin were evaluated (Table 5).
as §1, with “Test” for “For comparative purposes, the stability of racecadotril was analyzed when solubilized in pH 4.5 Acetate buffer and pH 4.5 Citrate buffer (Table 4). Test”

In the case of `CC(=O)SCC(Cc1ccccc1)C(=O)NCC(=O)OCc1ccccc1` (racemic) [Racecadotril], the “solubility in buffer versus water” value [1] is reported as “more soluble in buffer than in water”, the “stability in buffer versus water” value ([1]; 40° C. and 4 weeks) is reported as “more stable in a buffer than in water” and the racecadotril present ([2]; in water, at 1 week) is reported as “less than 1%”. For the same molecule, the stability in water [2] was “unstable after 12 hours”, the “solubility utilizing Beta-HPCD” value [3] was “higher solubility was achieved utilizing the Beta-HPCD” and the “stability in Beta-HPCD versus buffers alone” value ([3]; 40° C.) was “stability is similar to that in buffers alone”.
